Assay results: ChEMBL document CHEMBL4304789, “Design, Synthesis, and Biological Evaluation of 2,4-Imidazolinedione Derivatives as HDAC6 Isoform-Selective Inhibitors” (ACS Med Chem Lett, 2019)

Experiments:
Histone deacetylase 2 = Histone deacetylase 2 (Homo sapiens, UniProt Q92769); assay: Inhibition of HDAC2 (unknown origin) using Ac-LeuGlyLys(Ac)-AMC as substrate preincubated for 5 mins followed by substrate addition and measured after 60 mins by fluorescence based assay
Histone deacetylase 9 = Histone deacetylase 9 (Homo sapiens, UniProt Q9UKV0); assay: Inhibition of HDAC9 (unknown origin) using Ac-LeuGlyLys(tfa)-AMC as substrate preincubated for 5 mins followed by substrate addition and measured after 60 mins by fluorescence based assay
Sequence of Histone deacetylase 9 (Q9UKV0 whole entry): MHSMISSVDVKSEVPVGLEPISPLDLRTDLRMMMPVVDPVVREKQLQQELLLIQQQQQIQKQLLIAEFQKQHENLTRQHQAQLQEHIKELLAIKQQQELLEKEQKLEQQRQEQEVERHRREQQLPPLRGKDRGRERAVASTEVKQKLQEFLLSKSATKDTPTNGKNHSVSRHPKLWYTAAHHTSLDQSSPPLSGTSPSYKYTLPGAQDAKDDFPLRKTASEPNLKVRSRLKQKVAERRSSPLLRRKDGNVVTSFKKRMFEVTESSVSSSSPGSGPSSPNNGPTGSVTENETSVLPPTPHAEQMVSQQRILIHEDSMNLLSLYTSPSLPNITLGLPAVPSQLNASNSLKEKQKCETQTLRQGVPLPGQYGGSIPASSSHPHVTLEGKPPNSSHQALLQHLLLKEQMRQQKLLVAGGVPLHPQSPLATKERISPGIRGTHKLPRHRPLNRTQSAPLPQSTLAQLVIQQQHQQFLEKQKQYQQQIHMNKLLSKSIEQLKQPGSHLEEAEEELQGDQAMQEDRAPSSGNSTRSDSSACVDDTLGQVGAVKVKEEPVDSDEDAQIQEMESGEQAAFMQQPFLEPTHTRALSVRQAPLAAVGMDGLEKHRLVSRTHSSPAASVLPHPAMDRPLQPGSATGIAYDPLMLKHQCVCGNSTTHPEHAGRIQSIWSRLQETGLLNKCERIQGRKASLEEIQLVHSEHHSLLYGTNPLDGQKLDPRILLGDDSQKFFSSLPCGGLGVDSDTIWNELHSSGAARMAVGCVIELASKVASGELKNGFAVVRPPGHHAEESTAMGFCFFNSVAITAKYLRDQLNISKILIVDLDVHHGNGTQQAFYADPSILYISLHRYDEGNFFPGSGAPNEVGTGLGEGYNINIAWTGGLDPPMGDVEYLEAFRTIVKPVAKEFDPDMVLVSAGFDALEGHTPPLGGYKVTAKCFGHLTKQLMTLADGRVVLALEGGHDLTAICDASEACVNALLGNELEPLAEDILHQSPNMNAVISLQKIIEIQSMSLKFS

Histone deacetylase 1 = Histone deacetylase 1 (Homo sapiens, UniProt Q13547); assay: Inhibition of HDAC1 (unknown origin) using Ac-LeuGlyLys(Ac)-AMC as substrate preincubated for 5 mins followed by substrate addition and measured after 60 mins by fluorescence based assay
Sequence of Histone deacetylase 1 (Q13547 whole entry): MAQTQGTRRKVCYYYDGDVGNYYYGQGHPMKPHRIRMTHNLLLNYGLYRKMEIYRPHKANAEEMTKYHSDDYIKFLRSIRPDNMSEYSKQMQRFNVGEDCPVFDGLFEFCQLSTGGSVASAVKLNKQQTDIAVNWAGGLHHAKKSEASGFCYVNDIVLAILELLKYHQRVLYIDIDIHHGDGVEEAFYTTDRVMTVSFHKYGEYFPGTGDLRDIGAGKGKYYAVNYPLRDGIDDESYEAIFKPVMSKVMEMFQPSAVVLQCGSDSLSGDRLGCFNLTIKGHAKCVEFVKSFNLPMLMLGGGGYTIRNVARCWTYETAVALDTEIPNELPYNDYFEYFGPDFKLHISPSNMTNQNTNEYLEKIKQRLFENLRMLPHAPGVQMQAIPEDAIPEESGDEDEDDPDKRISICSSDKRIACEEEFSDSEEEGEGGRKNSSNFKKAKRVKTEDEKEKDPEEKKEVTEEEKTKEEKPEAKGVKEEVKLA

Histone deacetylase 8 = molecular target: T1, Histone deacetylase 8 (Homo sapiens, UniProt Q9BY41); assay: Inhibition of HDAC8 (unknown origin) using Ac-LeuGlyLys(tfa)-AMC as substrate preincubated for 5 mins followed by substrate addition and measured after 60 mins by fluorescence based assay
T1 sequence (Q9BY41 whole entry): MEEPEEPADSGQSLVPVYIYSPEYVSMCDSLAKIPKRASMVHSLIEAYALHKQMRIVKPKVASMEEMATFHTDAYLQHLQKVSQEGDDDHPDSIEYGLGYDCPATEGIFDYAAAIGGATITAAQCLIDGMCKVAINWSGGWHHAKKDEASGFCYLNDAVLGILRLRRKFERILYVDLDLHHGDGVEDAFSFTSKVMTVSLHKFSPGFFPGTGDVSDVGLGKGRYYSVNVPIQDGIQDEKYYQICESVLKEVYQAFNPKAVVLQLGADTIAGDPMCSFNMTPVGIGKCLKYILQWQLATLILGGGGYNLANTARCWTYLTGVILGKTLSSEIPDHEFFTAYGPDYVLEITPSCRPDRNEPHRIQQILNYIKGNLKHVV

Histone deacetylase 7 = molecular target: T2, Histone deacetylase 7 (Homo sapiens, UniProt Q8WUI4); assay: Inhibition of HDAC7 (unknown origin) using Ac-LeuGlyLys(tfa)-AMC as substrate preincubated for 5 mins followed by substrate addition and measured after 60 mins by fluorescence based assay
T2 sequence (Q8WUI4 whole entry): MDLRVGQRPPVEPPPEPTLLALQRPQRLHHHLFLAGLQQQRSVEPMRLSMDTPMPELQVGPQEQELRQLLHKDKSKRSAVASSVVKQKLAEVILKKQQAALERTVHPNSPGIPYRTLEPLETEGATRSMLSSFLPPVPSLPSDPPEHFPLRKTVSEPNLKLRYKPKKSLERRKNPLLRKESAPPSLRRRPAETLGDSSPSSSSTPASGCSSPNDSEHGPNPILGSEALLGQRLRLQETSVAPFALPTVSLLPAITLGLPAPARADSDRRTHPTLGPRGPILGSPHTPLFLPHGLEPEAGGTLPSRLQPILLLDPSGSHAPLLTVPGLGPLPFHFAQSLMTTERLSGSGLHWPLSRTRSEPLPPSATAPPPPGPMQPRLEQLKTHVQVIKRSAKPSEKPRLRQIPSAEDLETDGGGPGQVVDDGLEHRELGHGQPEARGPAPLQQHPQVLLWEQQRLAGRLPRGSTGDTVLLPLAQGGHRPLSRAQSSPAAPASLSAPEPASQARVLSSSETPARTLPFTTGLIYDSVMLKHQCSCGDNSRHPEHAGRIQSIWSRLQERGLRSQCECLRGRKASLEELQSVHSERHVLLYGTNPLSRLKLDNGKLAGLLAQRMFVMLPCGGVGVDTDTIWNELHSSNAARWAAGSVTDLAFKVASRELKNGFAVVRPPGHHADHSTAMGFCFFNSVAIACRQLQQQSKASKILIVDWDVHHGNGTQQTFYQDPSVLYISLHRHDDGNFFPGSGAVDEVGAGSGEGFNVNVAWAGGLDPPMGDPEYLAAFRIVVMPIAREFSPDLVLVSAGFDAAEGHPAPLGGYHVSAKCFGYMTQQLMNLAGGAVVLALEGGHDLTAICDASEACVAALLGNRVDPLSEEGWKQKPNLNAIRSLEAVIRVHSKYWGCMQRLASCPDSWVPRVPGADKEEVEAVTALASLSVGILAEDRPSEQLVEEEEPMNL

RPMI-8226 = assay: Antiproliferative activity against human RPMI8226 cells incubated for 48 hrs by MTT assay; assay type: functional, cell-based; conditions: RPMI-8226, 48 h
A549 = assay: Antiproliferative activity against human A549 cells incubated for 48 hrs by MTT assay; assay type: functional, cell-based; conditions: A549, 48 h
Histone deacetylase 3 = Histone deacetylase 3 (Homo sapiens, UniProt O15379); assay: Inhibition of HDAC3 (unknown origin) using Ac-LeuGlyLys(Ac)-AMC as substrate preincubated for 5 mins followed by substrate addition and measured after 60 mins by fluorescence based assay
Sequence of Histone deacetylase 3 (O15379 whole entry): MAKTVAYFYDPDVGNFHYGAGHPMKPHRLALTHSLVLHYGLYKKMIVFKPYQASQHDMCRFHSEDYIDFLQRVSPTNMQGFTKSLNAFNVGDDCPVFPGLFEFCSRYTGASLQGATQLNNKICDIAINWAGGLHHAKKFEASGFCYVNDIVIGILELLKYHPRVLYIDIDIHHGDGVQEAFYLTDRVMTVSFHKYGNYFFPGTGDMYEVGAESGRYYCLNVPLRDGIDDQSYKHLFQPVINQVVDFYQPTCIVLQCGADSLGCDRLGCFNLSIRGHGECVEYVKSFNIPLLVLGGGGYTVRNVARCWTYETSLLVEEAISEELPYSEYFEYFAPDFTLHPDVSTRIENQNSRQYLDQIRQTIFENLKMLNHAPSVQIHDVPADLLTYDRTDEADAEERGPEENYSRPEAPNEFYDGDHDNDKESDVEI

Histone deacetylase 11 = molecular target: T3, Histone deacetylase 11 (Homo sapiens, UniProt Q96DB2); assay: Inhibition of HDAC11 (unknown origin) using Ac-LeuGlyLys(Ac)-AMC as substrate preincubated for 5 mins followed by substrate addition and measured after 60 mins by fluorescence based assay
T3 sequence (Q96DB2 whole entry): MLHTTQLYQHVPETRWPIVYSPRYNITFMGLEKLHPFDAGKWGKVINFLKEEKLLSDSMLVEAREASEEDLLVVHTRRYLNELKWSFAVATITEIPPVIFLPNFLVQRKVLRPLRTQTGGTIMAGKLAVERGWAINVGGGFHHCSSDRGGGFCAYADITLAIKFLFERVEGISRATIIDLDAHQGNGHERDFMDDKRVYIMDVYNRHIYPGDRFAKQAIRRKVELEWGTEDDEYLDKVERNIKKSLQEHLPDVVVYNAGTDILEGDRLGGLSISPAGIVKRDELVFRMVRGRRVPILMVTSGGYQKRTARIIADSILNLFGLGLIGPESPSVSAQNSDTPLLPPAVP

HCT-116 = assay: Antiproliferative activity against human HCT116 cells incubated for 48 hrs by MTT assay; assay type: functional, cell-based; conditions: HCT-116, 48 h
HL-60 = assay: Antiproliferative activity against human HL60 cells incubated for 48 hrs by MTT assay; assay type: functional, cell-based; conditions: HL-60, 48 h
K562 = assay: Antiproliferative activity against human K562 cells incubated for 48 hrs by MTT assay; assay type: functional, cell-based; conditions: K562, 48 h
Histone deacetylase 4 = Histone deacetylase 4 (Homo sapiens, UniProt P56524); assay: Inhibition of HDAC4 (unknown origin) using Ac-LeuGlyLys(tfa)-AMC as substrate preincubated for 5 mins followed by substrate addition and measured after 60 mins by fluorescence based assay
Sequence of Histone deacetylase 4 (P56524 whole entry): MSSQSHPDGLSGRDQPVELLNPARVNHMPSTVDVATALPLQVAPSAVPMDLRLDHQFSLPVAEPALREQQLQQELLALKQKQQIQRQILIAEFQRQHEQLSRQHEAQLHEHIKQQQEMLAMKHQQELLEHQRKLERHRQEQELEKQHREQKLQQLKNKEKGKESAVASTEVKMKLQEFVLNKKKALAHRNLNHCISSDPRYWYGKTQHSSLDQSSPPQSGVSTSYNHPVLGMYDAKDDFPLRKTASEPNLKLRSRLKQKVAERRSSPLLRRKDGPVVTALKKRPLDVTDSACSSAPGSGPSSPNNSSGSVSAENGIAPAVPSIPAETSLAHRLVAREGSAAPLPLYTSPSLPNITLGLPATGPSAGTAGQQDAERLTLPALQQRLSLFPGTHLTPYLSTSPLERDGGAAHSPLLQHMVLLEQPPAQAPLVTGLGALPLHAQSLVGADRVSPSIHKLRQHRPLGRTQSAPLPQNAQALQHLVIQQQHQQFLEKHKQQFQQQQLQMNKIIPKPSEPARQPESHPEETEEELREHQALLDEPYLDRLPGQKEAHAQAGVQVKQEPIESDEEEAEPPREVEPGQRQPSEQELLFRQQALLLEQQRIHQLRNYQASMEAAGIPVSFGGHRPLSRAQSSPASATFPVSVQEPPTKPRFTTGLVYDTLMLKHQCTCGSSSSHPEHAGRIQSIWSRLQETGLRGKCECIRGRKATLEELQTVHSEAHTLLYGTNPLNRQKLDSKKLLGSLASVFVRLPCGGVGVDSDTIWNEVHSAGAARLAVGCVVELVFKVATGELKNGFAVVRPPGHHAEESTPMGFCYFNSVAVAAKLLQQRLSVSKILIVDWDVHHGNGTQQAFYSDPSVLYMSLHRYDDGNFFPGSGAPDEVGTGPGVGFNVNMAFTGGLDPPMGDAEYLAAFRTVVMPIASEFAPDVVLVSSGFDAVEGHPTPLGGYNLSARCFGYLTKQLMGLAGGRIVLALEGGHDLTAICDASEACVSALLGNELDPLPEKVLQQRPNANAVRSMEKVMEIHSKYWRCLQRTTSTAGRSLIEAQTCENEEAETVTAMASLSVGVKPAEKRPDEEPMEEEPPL

Histone deacetylase 5 = Histone deacetylase 5 (Homo sapiens, UniProt Q9UQL6); assay: Inhibition of HDAC5 (unknown origin) using Ac-LeuGlyLys(tfa)-AMC as substrate preincubated for 5 mins followed by substrate addition and measured after 60 mins by fluorescence based assay
Sequence of Histone deacetylase 5 (Q9UQL6 whole entry): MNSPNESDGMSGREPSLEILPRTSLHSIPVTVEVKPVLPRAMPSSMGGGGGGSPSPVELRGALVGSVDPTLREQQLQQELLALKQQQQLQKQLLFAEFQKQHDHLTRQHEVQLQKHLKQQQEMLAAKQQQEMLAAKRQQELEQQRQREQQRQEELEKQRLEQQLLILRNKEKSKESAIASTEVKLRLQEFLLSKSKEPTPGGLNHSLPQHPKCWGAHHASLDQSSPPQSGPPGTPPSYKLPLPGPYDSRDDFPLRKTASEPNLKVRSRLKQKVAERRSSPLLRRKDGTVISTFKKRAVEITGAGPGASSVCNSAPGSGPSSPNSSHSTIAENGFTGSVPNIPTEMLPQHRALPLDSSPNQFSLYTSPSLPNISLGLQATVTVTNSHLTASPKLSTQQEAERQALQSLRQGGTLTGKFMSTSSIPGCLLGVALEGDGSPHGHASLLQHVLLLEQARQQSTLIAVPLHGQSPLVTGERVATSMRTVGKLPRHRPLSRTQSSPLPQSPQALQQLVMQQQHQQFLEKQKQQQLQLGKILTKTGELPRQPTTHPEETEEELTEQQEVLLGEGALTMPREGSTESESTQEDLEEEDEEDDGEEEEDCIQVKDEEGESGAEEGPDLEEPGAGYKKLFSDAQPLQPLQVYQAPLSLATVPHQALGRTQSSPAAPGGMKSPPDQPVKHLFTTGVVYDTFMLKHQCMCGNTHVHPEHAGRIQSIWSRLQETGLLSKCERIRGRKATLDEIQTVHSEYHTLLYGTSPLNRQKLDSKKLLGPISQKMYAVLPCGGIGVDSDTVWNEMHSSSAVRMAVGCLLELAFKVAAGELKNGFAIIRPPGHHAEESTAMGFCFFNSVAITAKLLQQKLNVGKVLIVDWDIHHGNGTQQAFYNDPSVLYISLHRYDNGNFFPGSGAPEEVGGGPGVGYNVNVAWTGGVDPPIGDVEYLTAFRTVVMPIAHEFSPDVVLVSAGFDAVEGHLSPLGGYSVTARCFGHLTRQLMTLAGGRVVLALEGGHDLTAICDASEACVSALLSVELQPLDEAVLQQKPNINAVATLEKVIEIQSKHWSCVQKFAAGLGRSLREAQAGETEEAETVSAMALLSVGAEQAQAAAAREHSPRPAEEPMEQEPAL

Sequence of Histone deacetylase 2 (Q92769 whole entry): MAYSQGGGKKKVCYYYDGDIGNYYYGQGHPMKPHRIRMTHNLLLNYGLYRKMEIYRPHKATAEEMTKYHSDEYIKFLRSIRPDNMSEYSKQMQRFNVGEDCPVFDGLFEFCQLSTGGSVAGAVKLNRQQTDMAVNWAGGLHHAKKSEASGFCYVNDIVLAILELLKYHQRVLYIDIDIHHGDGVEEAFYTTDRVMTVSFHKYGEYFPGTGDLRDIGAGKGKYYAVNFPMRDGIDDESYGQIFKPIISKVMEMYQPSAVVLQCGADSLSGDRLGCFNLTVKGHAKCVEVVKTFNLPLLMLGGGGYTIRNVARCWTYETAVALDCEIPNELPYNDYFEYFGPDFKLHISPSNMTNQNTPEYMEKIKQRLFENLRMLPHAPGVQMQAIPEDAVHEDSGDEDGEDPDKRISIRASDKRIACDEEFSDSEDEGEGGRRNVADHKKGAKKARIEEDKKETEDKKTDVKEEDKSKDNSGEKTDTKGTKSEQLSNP

Row | IC50 (Histone deacetylase 2) [nM] | IC50 (Histone deacetylase 9) [nM] | IC50 (Histone deacetylase 1) [nM] | IC50 (Histone deacetylase 8) [nM] | IC50 (Histone deacetylase 7) [nM] | IC50 (RPMI-8226) [nM] | IC50 (A549) [nM] | IC50 (Histone deacetylase 3) [nM] | IC50 (Histone deacetylase 11) [nM] | IC50 (HCT-116) [nM] | IC50 (HL-60) [nM] | IC50 (K562) [nM] | IC50 (Histone deacetylase 4) [nM] | IC50 (Histone deacetylase 5) [nM] | Structure (SMILES)
1 | 277 | > 100000 | 959 | > 100000 | > 100000 | 230 | 790 | 235 | > 100000 | 830 | 250 | 490 | > 100000 | 14900 | Cc1ccc(CN2C(=O)N(c3ccc(Cl)cc3)C(=O)C2CCC(=O)Nc2ccc(C(=O)NO)cc2)cc1 (configuration not stated)
2 | 203 | 15200 | 111 | 3600 | 8800 | 640 | 9450 | 96 | > 100000 | 2250 | 610 | 830 | 27000 | 4600 | O=C(CCC1C(=O)N(c2ccc(Cl)cc2)C(=O)N1Cc1ccccc1)Nc1ccc(C(=O)NO)cc1 (configuration not stated)
3 | 249 | 9100 | 194 | 6700 | 6000 | 360 | 5860 | 126 | > 100000 | 1250 | 340 | 690 | > 100000 | 4600 | O=C(CCC1C(=O)N(c2ccc(Cl)cc2)C(=O)N1Cc1ccc(Br)cc1)Nc1ccc(C(=O)NO)cc1 (configuration not stated)
